Like-named read-outs stand apart in the source and are kept apart here. Peptide text beside a SMILES is read from it. * marks the point of attachment. Cbz = O=C(OCc1ccccc1)*; CH2F = FC*

Consider 11 compounds from publication PMC3257251, “A Whole Cell Assay to Measure Caspase-6 Activity by Detecting Cleavage of Lamin A/C” (PLoS ONE, 2012).

The target in data set [1] is T1, Caspase-6 (Homo sapiens, UniProt P55212).
T1 sequence (P55212 24-179 limits assumed): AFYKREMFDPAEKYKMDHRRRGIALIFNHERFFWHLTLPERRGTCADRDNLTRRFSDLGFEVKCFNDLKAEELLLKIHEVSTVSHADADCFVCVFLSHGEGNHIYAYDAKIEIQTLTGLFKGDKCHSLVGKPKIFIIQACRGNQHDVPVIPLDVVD
T1 sequence (P55212 194-293 limits assumed): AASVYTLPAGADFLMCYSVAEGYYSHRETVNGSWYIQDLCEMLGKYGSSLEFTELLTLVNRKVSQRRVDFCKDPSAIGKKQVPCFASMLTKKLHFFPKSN
As to the kind of experiment: Enzymatic caspase activity assay, (Ac-VEID)2-Rh110 substrate. The settings on record: 15 minute enzyme/inhibitor preincubation and 40 minute enzyme reaction.
Protocol: (§1) All peptide inhibitors were serially diluted in DMSO prior to cross dilution in assay buffer (50 mM HEPES pH 7.2, 25 mM MgSO4, 0.5 mM EGTA, 5 mM Glutathione, 0.01% Triton X-100 containing 0.1% Bovine Gamma Globulin (BGG)). […] Rhodamine-labeled bivalent tetrapeptide substrates were obtained from Anaspec (Fremont, CA) and used as follows: 300 pM caspase-3 reacted with 1 µM (Ac-DEVD)2 -Rh110, 1 nM caspase-6 reacted with 5 µM (Ac-VEID)2 -Rh110, 5 pM caspase-7 reacted with 1 µM (Ac-DEVD)2 -Rh110. Enzyme and inhibitor were preincubated for 15 minutes prior to the addition of substrate to initiate the enzymatic reaction.

Data set [2] deals with T2, caspase-6 cleavage of lamin A/C in SKNAS cells (Homo sapiens, UniProt P55212).
T2 construct: monitors cellular caspase-6 cleavage of endogenous lamin A/C under apoptotic conditions; endogenous in cells; host or cells: SKNAS (ATCC #CRL-2137)
T2 sequence (P55212 24-179 limits assumed): T1 sequence (P55212 24-179 limits assumed)
T2 sequence (P55212 194-293 limits assumed): T1 sequence (P55212 194-293 limits assumed)
As to the kind of experiment: Cell-based ELISA for cleaved lamin A/C (cellular lamin cleavage assay). The settings on record: for IC50: inhibitor 30 min before 3 µM staurosporine for 6 hours, small lamin A/C cleavage product; for activity in the cellular lamin degradation assay: inhibitor concentrations up to 100 µM, 3 µM staurosporine for 6 hours; for fold lower potency in cellular lamin assay than in enzymatic assay: cellular lamin cleavage IC50 versus enzymatic caspase-6 IC50. As to the method: The following day, cell culture medium was aspirated and replaced with 20 µl/well basal medium (DMEM with no supplements added). […] 5 µl of diluted inhibitor was delivered to each well and incubated for 30 minutes in a cell culture incubator prior to addition of 5 µl/well staurosporine in basal medium. The final DMSO concentration in the assay was 0.1% and the final staurosporine concentration was 3 µM (or indicated concentration). […] Cells were permeabilized by the addition of 50 µl 0.2% Triton X-100 in PBS for 15 minutes at room temperature. […] The following day, primary antibody was aspirated and the wells washed 3 times with 100 µl TBST. Secondary antibody (donkey anti-rabbit IgG, HRP-conjugated (GE Healthcare #NA934V)) was delivered at 1∶2500 dilution in blocking agent (20 µl/well) and incubated 1 hour at room temperature.
In order to develop an assay more amenable to inhibitor screening, this antibody detection was adapted to a plate-based non-denaturing assay. SKNAS cells cultured in 384-well plates were treated with 3 µM staurosporine for six hours prior to fixation with 4% paraformaldehyde and permeabilization with 0.2% Triton X-100. Binding of the two antibodies that recognize neo-epitopes on the large or small lamin degradation products was detected by horseradish-peroxidase-labeled secondary antibody and subsequent chemiluminescent substrate addition (see methods for details).

Data set [3] has as its system VEIDase activity in SKNAS cells. Put plainly: Caspase-Glo 6 assay (lysate based). Format: cell-based, human. The settings on record: 3 µM staurosporine for 6 hours, lysate based readout, read-out: IC50 for inhibition of VEIDase activity, Caspase-Glo 6 assay. As to the method: SKNAS cells were plated at a density of 20,000 cells per well into 384-well black clear-bottom cell culture plates in 20 µl/well growth medium and allowed to adhere overnight. The following day, 5 µl of peptide inhibitor diluted in growth medium was delivered to each well 30 minutes prior to addition of 5 µl/well staurosporine in growth medium. The final DMSO concentration in the assay was 0.1% and the final staurosporine concentration was 3 µM. Following 6 hours incubation at 37°C, Caspase-Glo® 6 reagents (Promega; Madison, WI) were prepared according to manufacturer's recommendation, and 30 µl was added directly to each well, followed by 1 hour incubation at 37°C and luminescence recording using a Perkin Elmer Envision.

Data set [4] deals with T3, Caspase-7 (Homo sapiens, UniProt P55210).
T3 sequence (P55210 24-198 limits assumed): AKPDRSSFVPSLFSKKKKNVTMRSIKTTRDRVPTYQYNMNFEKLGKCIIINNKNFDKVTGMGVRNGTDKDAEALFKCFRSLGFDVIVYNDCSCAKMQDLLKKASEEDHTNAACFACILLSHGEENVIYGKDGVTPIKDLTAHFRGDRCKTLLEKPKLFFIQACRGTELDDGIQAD
T3 sequence (P55210 207-303 limits assumed): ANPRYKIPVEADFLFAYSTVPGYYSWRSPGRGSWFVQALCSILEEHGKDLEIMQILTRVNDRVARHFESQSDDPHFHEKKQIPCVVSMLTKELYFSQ
Put plainly: Enzymatic caspase activity assay, (Ac-DEVD)2-Rh110 substrate. The settings on record: read-out: Mean IC50 Caspase-7; apparent IC50; 15 minute preincubation and 40 minute reaction; 5 pM caspase-7, 1 µM (Ac-DEVD)2-Rh110.
Protocol: as §1

Data set [5] addresses T4, Caspase-3 (Homo sapiens, UniProt P42574).
T4 construct: made in house; host or cells: E. coli
T4 sequence (P42574 29-175 limits assumed): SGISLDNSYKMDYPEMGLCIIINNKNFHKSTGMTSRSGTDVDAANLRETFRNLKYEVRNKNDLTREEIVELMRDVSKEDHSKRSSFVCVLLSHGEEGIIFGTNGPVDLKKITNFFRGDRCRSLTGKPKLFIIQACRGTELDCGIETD
T4 sequence (P42574 176-277 limits assumed): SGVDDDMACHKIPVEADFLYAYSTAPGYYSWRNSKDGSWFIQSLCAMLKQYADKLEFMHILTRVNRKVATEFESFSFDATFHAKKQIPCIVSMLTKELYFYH
The description is as above. The class given is biochemical. The settings on record: apparent IC50; 15 minute preincubation and 40 minute reaction; 300 pM caspase-3, 1 µM (Ac-DEVD)2-Rh110.
Protocol: as §1

The test system of data set [6] is SKNAS cells. As to the kind of experiment: Mass spectrometry analysis of intracellular inhibitor accumulation. The settings on record: 10 µM inhibitor, 1 hour at 37°C, LC/MS/MS.
Protocol: SKNAS cells were seeded in 12-well plates at a concentration of 5×10^6 cells/mL and allowed to adhere overnight prior to the experiment. Caspase inhibitors (10 µM) in Hank's balance Salt Solution (HBSS; Invitrogen) buffer containing 10 mM HEPES (Invitrogen) and a final DMSO concentration of 0.1% were added in triplicate to the cells. Non specific binding (NSB) samples were prepared by immediately aspirating the dose solution and washing the cells with 1 mL of ice cold HBSS. Cells for the accumulation experiment were incubated for 1 hour at 37°C with inhibitors prior to washing with 1 mL ice cold HBSS. Analytical internal standard (200 nM propranolol (Sigma) in 100% acetonitrile (ACN) with 0.1% formic acid) and blank HBSS buffer were sequentially added to the 12-well plates containing the NSB and accumulation samples. Reference samples for each inhibitor were made by adding internal standard to dose solution and cells incubated for 1 hour at 37°C. The cells from all experiments were scraped from the bottom of the 12 well plates, sonicated for approximately 30 minutes, and centrifuged for 10 minutes at 3000 x g prior to LC/MS/MS analysis.
The LC/MS/MS system consisted of an AB Sciex API4000 mass spectrometer (AB Sciex, Foster City, CA), an Aria LX2 multiplexing LC system (Thermo Fisher Scientific, Waltham, MA) and a CTC Analytics autosampler (Leap Technologies, Carrboro, NC). An ESI Spray source in the positive ion mode and multiple reaction monitoring (MRM) were used to quantitate peak areas. The LC separations were performed on a 50×2.0 mm Gemini C18 analytical column (Phenomenex, Torrance, CA). The mobile phases consisted of water with 0.1% formic acid (mobile phase A) and ACN with 0.1% formic acid (mobile phase B). Mass spectrometer data were processed using Analyst software version 1.4.2.
Data set [7] relates to SKNAS cells. As to the kind of experiment: LDH release assay. Format: cell-based, human. How it is done: SKNAS cells were plated at a density of 20,000 cells per well into 384-well black clear-bottom cell culture plates in 20 µl/well growth medium and allowed to adhere overnight. The following day, 5 µl staurosporine diluted in growth medium was delivered to each well and incubated for the indicated time in a cell culture incubator. The final DMSO concentration in the assay was 0.1%. At each timepoint, lactate dehydrogenase (LDH) activity was measured in cell supernatants using a colorimetric LDH activity measurement kit (BioVision; Mountain View, CA) according to manufacturer's recommendation by measuring absorbance at 450 nm using a Spectramax platereader (Molecular Devices; Sunnyvale, CA).

Where [8] appears, read: read-out: Enzymatic Caspase-6 IC50.
[9] abbreviates: read-out: Mean IC50 Caspase-6, apparent IC50, 1 nM caspase-6, 5 µM (Ac-VEID)2-Rh110.

Take `CC(=O)N[C@@H](CC(=O)O)C(=O)N[C@@H](CCC(=O)O)C(=O)N[C@H](C(=O)N[C@H](C=O)CC(=O)O)C(C)C` [Ac-DEVD-CHO]: the 50% inhibitory concentration (IC50) was 31 nM in data set [1] (setting [8]); 30.5 nM in data set [1] (setting [9]); greater than 100000 nM in data set [2] (SKNAS cells); 1490 nM in data set [3]; 3.7 nM in data set [4]. For the same compound, the “activity in the cellular lamin degradation assay” value in data set [2] (SKNAS cells) was “inactive in lamin degradation assay”.

In the case of `CC[C@H](C)[C@H](NC(C)=O)C(=O)N[C@@H](CCC(=O)O)C(=O)N[C@H](C(=O)N[C@H](C=O)CC(=O)O)[C@@H](C)O` [Ac-IETD-CHO] (Ac-IETD-aldehyde), the figures for the 50% inhibitory concentration (IC50) in data set [5], in data set [1] (setting [9]) and in data set [4] were 75.8 nM, 53.2 nM and 553 nM, respectively.

As for `CC[C@H](C)[C@H](NC(=O)[C@H](CCC(=O)O)NC(=O)[C@@H](NC(C)=O)C(C)C)C(=O)N[C@H](C=O)CC(=O)O` [Ac-VEID-CHO] (Ac-VEID-aldehyde), the IC50 in data set [5] was found to be 13.6 nM; in data set [3], 490 nM; in data set [4], 162 nM. Further, the “activity in the cellular lamin degradation assay” value in data set [2] (SKNAS cells) is “lacks any activity in the cellular assay”.

On to `CC(C)[C@H](NC(=O)c1ccc2ccccc2n1)C(=O)N[C@@H](CC(=O)O)C(=O)COc1c(F)cccc1F` [Q-VD-OPh], for which the “% cell accumulation” value in data set [6] is 1.72%. For the same compound, the concentration for half-maximal inhibition (IC50) in data set [1] (setting [8]) was determined as 156 nM; in data set [2] (SKNAS cells) it was 940 nM. Further, the “fold lower potency in cellular lamin assay than in enzymatic assay” value in data set [2] was determined as 6 fold.

In the case of `CN[C@@H]1C[C@H]2O[C@@](C)([C@@H]1OC)n1c3ccccc3c3c4c(c5c6ccccc6n2c5c31)C(=O)NC4` [staurosporine], the “signal:background ratio of lamin A/C degradation” value in data set [2] (SKNAS cells, 3 µM staurosporine, six-hour treatment, no inhibitor) was 8.8 fold. The “treatment time required for the same degree of LDH release” value in data set [7] (30 µM staurosporine) was 4 h. Moreover, the “staurosporine concentration at which LDH release is detected above background levels” value in data set [7] (after 6 hours of treatment) was roughly 4 µM.

On to `COC(=O)CC[C@H](NC(=O)[C@H](CC(=O)OC)NC(=O)OCc1ccccc1)C(=O)N[C@H](C(=O)N[C@@H](CC(=O)OC)C(=O)CF)C(C)C` [z-DEVD-FMK], for which the 50% inhibitory concentration (IC50) in data set [1] (setting [8]) was 402 nM; in data set [1] (setting [9]), 402 nM; in data set [2] (SKNAS cells), greater than 100000 nM; in data set [4], 98.5 nM.

For the compound `COC(=O)C[C@H](NC(=O)[C@H](C)NC(=O)[C@@H](NC(=O)OCc1ccccc1)C(C)C)C(=O)CF` [z-VAD-FMK] (Cbz-Val-Ala-Asp(OMe)-CH2F), the IC50 was found to be 168 nM in data set [5]; 2110 nM in data set [1] (setting [8]); 2110 nM in data set [1] (setting [9]); 44000 nM in data set [2] (SKNAS cells); 74.7 nM in data set [4].

As to `CC[C@H](C)[C@H](NC(=O)[C@H](CCC(=O)OC)NC(=O)[C@@H](NC(=O)OCc1ccccc1)C(C)C)C(=O)N[C@@H](CC(=O)OC)C(=O)CF` [z-VEID-FMK] (Cbz-VE(OMe)ID(OMe)-CH2F), the half-maximal inhibitory concentration (IC50) in data set [5] was determined as 45.1 nM; in data set [1] (setting [8]), 129 nM; in data set [1] (setting [9]), 129 nM; in data set [4] it was 648 nM.

For z-EID-TFPM, the IC50 was 8.4 nM in data set [1] (setting [8]) and 21000 nM in data set [2] (SKNAS cells).

Regarding z-ID-TFPM, in data set [6], the “% cell accumulation” value is listed as 1.97%. Also, the 50% inhibitory concentration (IC50) in data set [1] (setting [8]) turned out to be 19 nM; in data set [2] (SKNAS cells), 180 nM. In data set [2], the “fold lower potency in cellular lamin assay than in enzymatic assay” value is recorded as roughly 10 fold.

Regarding “z-VEID-tetrafluorophenoxymethyl [z-VEID-TFPM]”, the “% cell accumulation” value in data set [6] is listed as 0.17%. Moreover, the IC50 in data set [1] (setting [8]) was less than 1.7 nM; in data set [2] (SKNAS cells), 12000 nM.

The IC50 is the concentration that inhibits the measured activity by half.
